According to patent US20250092058A1 (priority 2018, published 2025):

What was measured:
[1] = test system: HT-3; assay: MTT assay HT-3; type: cell-based, human; conditions: Table 7; HT-3
Procedure: MTT assays. […] Viable cells (2500 cells per well) were plated in each well in 96-well plates. After an overnight incubation, cells were treated with and without relevant drugs alone and in combination, respectively, at various concentrations and incubated for 72 hours. MTT, a colorimetric substrate, was added to a final concentration of 0.4 mg/ml to each well. Cells in 96-well plates were further incubated in a 5% CO2 incubator at 37° C. for 4 hours, and then the medium was aspirated. The MTT metabolic product formazan was solubilized by adding 200 ul of DMSO to each well. Absorbance in the relevant wells was measured at 570 nm using an Ultra Microplate Reader (Bio-Tek Instruments). Each experiment was performed at least in triplicate. IC50/EC50 values were calculated from a series of drug dose ranges for each analyzed compound, using GraphPad Prism 6 (GraphPad Software, Inc., La Jolla, CA).
The inhibition of cell growth and viability in various cancer cell types were tested using MTT assay for references.

[2] = test system: Y79; assay: MTT assay Y79; type: cell-based; conditions: Table 7
Procedure: (§1) MTT assays. […] Each experiment was performed at least in triplicate.

[3] = test system: Wer 127; assay: MTT assay Wer 127; type: cell-based; conditions: Table 7
Procedure: as §1

[4] = test system: HepG2; type: cell-based, human
[5] = test system: A549; type: cell-based, human
[6] = test system: HeLa; type: cell-based, human
[7] = test system: HCT116; type: cell-based, human
[8] = test system: CRC PDX27454 tumors; conditions: mouse, in vivo
Procedure: Colorectal cancer (CRC) patient-derived xenograft (PDX) models were used to evaluate their in vivo antitumor activity. […] Treatments were administered weekly for four weeks on days 0, 7, 14 and 21 and tumor volumes and individual body weights were monitored.
Human xenograft tumors used. In this invention disclose, human SW620 (colorectal), HT29 (colorectal) and HT-3 (retinoblastoma) cancer cell line-established xenograft tumors were used. Human tumor cell line-derived xenograft tumors are initially established by subcutaneously injecting 2-5×10^6 cultured cancer cells in a volume of 100-150 p L medium into the flank area of severe combined immunodeficiency (SCID) mice. The derived tumors are then passed a couple of generations in mice by transplanting 30-50 mg non-necrotic tumor mass via a trocar for experiments or maintenance. […] PDX tumors were originally established on severe Combined Immunodeficiency (SCID) mice from pancreatic and colorectal cancer patient tumor tissues obtained from metastatic sites of the disease in the clinic.
Specifically, PDX tumors were originally established on severe Combined Immunodeficiency (SCID) mice from pancreatic and colorectal cancer patient tumor tissues obtained from metastatic sites of the disease in the clinic. […] The vehicle is the same think aqueous suspension without drug. Experimental SCID mice were subcutaneously implanted with 30-40 mg individual PDX tumors (isolated from maintenance mice) at the flank area for PDX27454 of SCID mice. Treatment with vehicle or a drug of 7Q-series (2) was initiated 7-14 days after the transplanted tumors reached 100-200 mm^3 (designated day 0). The animal model of PDX tumors was orally treated weekly for 4 times (one cycle/course, as shown with black arrows) or only one time drug administration.

CC[C@@]1(O)C(=O)OCc2c1cc1n(c2=O)Cc2c-1nc1cc3c(cc1c2C=Cc1ccccc1)OCO3 [FL7-5, 20 (S)-7-cinnamenyl-10,11-methylenedioxy-camptothecin]
IC50/EC50 [1]: 5.89 nM | IC50/EC50 [2]: 2.51 nM | IC50/EC50 [3]: 5.13 nM

CC[C@@]1(O)C(=O)OCc2c1cc1n(c2=O)Cc2c-1nc1cc3c(cc1c2-c1ccc(C)c(F)c1)OCO3 [Compound 7d]
IC50 [4]: 36.9 ± 1.2 nM | IC50 [5]: 48.2 ± 7.9 nM | IC50 [6]: 22.1 ± 7.3 nM | IC50 [7]: 50.3 ± 14.6 nM

CC[C@@]1(O)C(=O)OCc2c1cc1n(c2=O)Cc2c-1nc1cc3c(cc1c2-c1cccc(OC(F)(F)F)c1)OCO3 [Compound 7Q36]
antitumor activity, 7Q-series (2) [8]: much higher antitumor activity than the other compounds in this 7Q-series (2) | loss of antitumor efficacy on oral administration [8]: > 80%

CC[C@@]1(O)C(=O)OCc2c1cc1n(c2=O)Cc2c-1nc1cc3c(cc1c2-c1cc(F)cc(F)c1)OCO3 [Compound 7c]
IC50 [4]: 41.4 ± 5.9 nM | IC50 [5]: 49.5 ± 10 nM | IC50 [6]: 35.6 ± 5.8 nM | IC50 [7]: 48 ± 4.4 nM | antitumor efficacy [8]: high antitumor efficacy | mouse body weights ([8]; ip): stable mouse body weights

CC[C@@]1(O)C(=O)OCc2c1cc1n(c2=O)Cc2c-1nc1cc3c(cc1c2CCc1ccc(F)c(F)c1)OCO3 [FL7s-9]
IC50/EC50 [1]: 3.42 nM | IC50/EC50 [2]: 1 nM | IC50/EC50 [3]: 1.86 nM

CC[C@@]1(O)C(=O)OCc2c1cc1n(c2=O)Cc2c-1nc1cc3c(cc1c2-c1ccc(OC)c(F)c1)OCO3 [Compound 7g]
IC50 [4]: 172 ± 5.3 nM | IC50 [5]: 70.2 ± 9.6 nM | IC50 [6]: 24.3 ± 4.4 nM | IC50 [7]: 43.2 ± 15.8 nM

CC[C@@]1(O)C(=O)OCc2c1cc1n(c2=O)Cc2c-1nc1cc3c(cc1c2-c1cccc(OC(F)(F)F)c1)OCO3 [Compound 71]
IC50 [4]: 16.8 ± 2.3 nM | IC50 [5]: 26.4 ± 7.5 nM | IC50 [6]: 12.8 ± 7.4 nM | IC50 [7]: 14.6 ± 6.7 nM | antitumor efficacy [8]: no more effective than FL118 in vivo

CC[C@@]1(O)C(=O)OCc2c1cc1n(c2=O)Cc2c-1nc1cc3c(cc1c2CCc1cc(F)c(F)c(F)c1)OCO3 [FL7s-10]
IC50/EC50 [1]: 3.44 nM | IC50/EC50 [2]: 1.15 nM | IC50/EC50 [3]: 12.26 nM

CC[C@@]1(O)C(=O)OCc2c1cc1n(c2=O)Cc2c-1nc1cc3c(cc1c2CCc1ccccc1F)OCO3 [FL7s-8]
IC50/EC50 [1]: 4.88 nM | IC50/EC50 [2]: 1.56 nM | IC50/EC50 [3]: 28.99 nM

CC[C@@]1(O)C(=O)OCc2c1cc1n(c2=O)Cc2c-1nc1cc3c(cc1c2-c1cc(F)cc(OC)c1)OCO3 [Compound 7i]
IC50 [4]: 48.5 ± 2.3 nM | IC50 [5]: 15.5 ± 2.2 nM | IC50 [6]: 124 ± 12.1 nM | IC50 [7]: 66.9 ± 6.5 nM

CC[C@@]1(O)C(=O)OCc2c1cc1n(c2=O)Cc2c-1nc1cc3c(cc1c2-c1ccc(F)c(C)c1)OCO3 [Compound 7e]
IC50 [4]: 36.7 ± 2.6 nM | IC50 [5]: 29.4 ± 4.1 nM | IC50 [6]: 36.6 ± 4.5 nM | IC50 [7]: 25.5 ± 3.2 nM

CC[C@@]1(O)C(=O)OCc2c1cc1n(c2=O)Cc2c-1nc1cc3c(cc1c2/C=C/C=C/c1ccccc1)OCO3 [FL7s-1]
IC50/EC50 [1]: 11.9 nM | IC50/EC50 [2]: 4.16 nM | IC50/EC50 [3]: >500 nM

CCOc1ccc(-c2c3c(nc4cc5c(cc24)OCO5)-c2cc4c(c(=O)n2C3)COC(=O)[C@]4(O)CC)cc1F [Compound 7j]
IC50 [4]: 206 ± 38.2 nM | IC50 [5]: 352 ± 10.3 nM | IC50 [6]: 42.2 ± 3.6 nM | IC50 [7]: 399 ± 19.8 nM

CC[C@@]1(O)C(=O)OCc2c1cc1n(c2=O)Cc2c-1nc1cc3c(cc1c2CCc1ccc(F)cc1)OCO3 [FL7s-4]
IC50/EC50 [1]: 4.7 nM | IC50/EC50 [2]: 0.62 nM | IC50/EC50 [3]: 49.46 nM

CC[C@@]1(O)C(=O)OCc2c1cc1n(c2=O)Cc2c-1nc1cc3c(cc1c2-c1cccc(C(F)(F)F)c1)OCO3 [Compound 7Q35]
antitumor activity, 7Q-series (2) [8]: much higher antitumor activity than the other compounds in this 7Q-series (2) | effect of oral instead of i.p. administration on antitumor efficacy [8]: decreases 7Q35 antitumor efficacy

CC[C@@]1(O)C(=O)OCc2c1cc1n(c2=O)Cc2c-1nc1cc3c(cc1c2CCCCc1ccccc1)OCO3 [FL7s-5]
IC50/EC50 [1]: 3.58 nM | IC50/EC50 [2]: 1.11 nM | IC50/EC50 [3]: 381.2 nM

CC[C@@]1(O)C(=O)OCc2c1cc1n(c2=O)Cc2c-1nc1cc3c(cc1c2CCc1ccccc1)OCO3 [FL7-14, 20 (S)-7-phenethyl-10,11-methylenedioxy-camptothecin]
IC50/EC50 [1]: 36.9 nM | IC50/EC50 [2]: 8.39 nM | IC50/EC50 [3]: 4.1 nM

CC[C@@]1(O)C(=O)OCc2c1cc1n(c2=O)Cc2c-1nc1cc3c(cc1c2-c1ccc(F)c(OC)c1)OCO3 [Compound 7Q32]
antitumor activity, 7Q-series (2) [8]: much higher antitumor activity than the other compounds in this 7Q-series (2) | toxicity on i.p. versus oral administration [8]: increases 7Q32 toxicity to animals in comparison with oral administration

CC[C@@]1(O)C(=O)OCc2c1cc1n(c2=O)Cc2c-1nc1cc3c(cc1c2-c1ccc(OC(F)(F)F)cc1)OCO3 [Compound 7m]
IC50 [4]: 229 ± 5.8 nM | IC50 [5]: 87.3 ± 14.4 nM | IC50 [6]: 398 ± 2.6 nM | IC50 [7]: 196 ± 19.1 nM

CC[C@@]1(O)C(=O)OCc2c1cc1n(c2=O)Cc2c-1nc1cc3c(cc1c2-c1cccc(F)c1)OCO3 [Compound 7a]
IC50 [4]: 155 ± 35.1 nM | IC50 [5]: 40 ± 0.3 nM | IC50 [6]: 34.7 ± 6.5 nM | IC50 [7]: 150 ± 2.5 nM

CC[C@@]1(O)C(=O)OCc2c1cc1n(c2=O)Cc2c-1nc1cc3c(cc1c2-c1ccc(OC)c(F)c1)OCO3 [Compound 7Q31]
antitumor activity, 7Q-series (2) [8]: much higher antitumor activity than the other compounds in this 7Q-series (2) | effect of oral instead of i.p. administration on antitumor efficacy [8]: decreases 7Q28 antitumor efficacy

CC[C@@]1(O)C(=O)OCc2c1cc1n(c2=O)Cc2c-1nc1cc3c(cc1c2CCCCc1ccc(OC)cc1)OCO3 [FL7s-6]
IC50/EC50 [1]: 7.7 nM | IC50/EC50 [2]: 1.52 nM | IC50/EC50 [3]: 6.48 nM

CC[C@@]1(O)C(=O)OCc2c1cc1n(c2=O)Cc2c-1nc1cc3c(cc1c2-c1ccc(F)c(F)c1)OCO3 [Compound 7n]
IC50 [4]: 49.9 ± 3.5 nM | IC50 [5]: 9 nM | IC50 [6]: 39.7 ± 2.3 nM | IC50 [7]: 48.8 ± 3.2 nM

CC[C@@]1(O)C(=O)OCc2c1cc1n(c2=O)Cc2c-1nc1cc3c(cc1c2-c1ccc(C)c(F)c1)OCO3 [Compound 7Q28]
antitumor activity, 7Q-series (2) [8]: much higher antitumor activity than the other compounds in this 7Q-series (2) | effect of oral instead of i.p. administration on antitumor efficacy [8]: decreases 7Q28 antitumor efficacy

CCC1(O)C(=O)OCc2c1cc1n(c2=O)Cc2c-1nc1cc3c(cc1c2C=CC=Cc1ccc(OC)cc1)OCO3 (stereo not shown) [FL7s-2]
IC50/EC50 [1]: 113.2 nM | IC50/EC50 [2]: 41.48 nM | IC50/EC50 [3]: >500 nM

CC[C@@]1(O)C(=O)OCc2c1cc1n(c2=O)Cc2c-1nc1cc3c(cc1c2-c1cccc(C(F)(F)F)c1)OCO3 [Compound 7k]
IC50 [4]: 35 ± 6.6 nM | IC50 [5]: 82.9 ± 5.6 nM | IC50 [6]: 20.2 ± 3 nM | IC50 [7]: 73.6 ± 7.1 nM

CC[C@@]1(O)C(=O)OCc2c1cc1n(c2=O)Cc2c-1nc1cc3c(cc1c2-c1cc(C)cc(F)c1)OCO3 [Compound 7f]
IC50 [4]: 56 ± 0.3 nM | IC50 [5]: 30.6 ± 3.8 nM | IC50 [6]: 56.5 ± 2.8 nM | IC50 [7]: 41.4 ± 5.9 nM
